B1: adiponectin: hormone, endogenous ligand of AdipoR1 and AdipoR2 (protein, UniProt Q15848 19-244, looked up)
Adiponectin: ETTTQGPGVLLPLPKGACTGWMAGIPGHPGHNGAPGRDGRDGTPGEKGEKGDPGLIGPKGDIGETGVPGAEGPRGFPGIQGRKGEPGEGAYVYRSAFSVGLETYVTIPNMPIRFTKIFYNQQNHYDGSTGKFHCNIPGLYYFAYHITVYMKDVKVSLFKKDKAMLFTYDQYQENNVDQASGSVLLHLEVGDQVWLQVYGEGERNGLYADNDNDSTFTGFLLYHDTN

What was measured:
[1] = tested on: insulin-resistant C2C12 myotubes; experiment: 2-Deoxy-D-glucose uptake, insulin-resistant C2C12 myotubes; format: cell-based, mouse; settings: 0.6 mM palmitate; 100 nM insulin
Method: (§1) Skeletal muscle is the primary site of glucose metabolism, accounting for approximately […] of the entire body’s glucose uptake in the presence of insulin [22]. […] The effect of PEG-BHD1028 on glucose uptake in insulin-resistant C2C12 skeletal muscle cells was evaluated. To induce insulin resistance, differentiated C2C12 myotubes were treated with 0.6 mM palmitate and incubated for 16 h and then treated with 100 nM insulin and PEG-BHD1028 at concentrations of 100 and 500 nM for 30 min.
(§2) The 2-DG uptake of C2C12 cells was measured using the Glucose Uptake Assay Kit (Colorimetric, Ab136955, Abcam, Cambridge, UK) according to the manufacturer’s instruction. Palmitate to induce insulin resistance was prepared with minor modifications from the previous description. Briefly, palmitate was dissolved in 0.1 M NaOH to a concentration of 20 mM by heating at 75 °C and the dissolved solution was then diluted with 5% fatty acid-free bovine serum at a stock solution of 6 mM at 55 °C. Cells were treated with 0.6 mM palmitate overnight. The fixed cells were washed three times with DPBS, followed by incubation in Krebs-Ringer-Phosphate-Hepes (KRPH) buffer containing 2% fatty acid free-BSA for 40 min. […] Absorbance was measured using an Epoch microplate reader (BioTek Instruments, Inc., Winooski, VT, USA) at 412 nm.

[2] = tested on: C2C12 myotubes; experiment: 2-Deoxy-D-glucose uptake, non-resistant C2C12 myotubes; format: cell-based, mouse; settings: 100 nM insulin
Method: as §1, §2

[3] = tested on: diabetic swine; settings: cited from earlier work
From the text: It has also been well accepted that adiponectin alleviates insulin resistance, and adiponectin deficiency leads to abnormal glucose metabolism. Thus, insulin resistance has been recognized as the most fundamental root cause of type 2 diabetes mellitus, and the concentration of circulating adiponectin is negatively correlated with insulin resistance. […] Recent studies also have shown that p38 MAPK acts as an essential mediator in regulating adiponectin-induced ...

[4] = via AMPK, after binding to AdipoR1 and AdipoR2 in the hypothalamus; cited from earlier work
From the text: Besides the effect on the amelioration of insulin resistance, it has been widely known that adiponectin induces weight loss through fatty acid oxidation and energy expenditure. At the molecular level, adiponectin activates 5’ AMP-activated protein kinase (AMPK) and peroxisome proliferator-activated receptor alpha (PPARα) signal pathways. AMPK pathway ultimately enhances mitochondrial biogenesis and fatty acid β-oxidation, and the activated PPARα promotes uptake, utilization, and catabolism of fatty acids by upregulating the genes involved in fatty acid transport, fatty acid-binding ...

Row | Molecule | glucose uptake, insulin-resistant cells, insulin alone [1] | glucose uptake, non-resistant cells, insulin alone [2] | glucose metabolism / insulin sensitivity [3] | appetite [4]
1 | insulin: insulin | not observed | significantly increased |  | 
2 | B1 |  |  | enhanced glucose metabolism by improving insulin sensitivity | induced appetite

Reference: PMC7830917, “PEG-BHD1028 Peptide Regulates Insulin Resistance and Fatty Acid β-Oxidation, and Mitochondrial Biogenesis by Binding to Two Heterogeneous Binding Sites of Adiponectin Receptors, AdipoR1 and AdipoR2” (International Journal of Molecular Sciences, 2021)
